Laboratory results from US10092648B2, “Selective glucagon-like-peptide-2 (GLP-2) analogues” (Zealand Pharma A/S, priority 2006, dated 2018).
“And” between values parts separate entries of the source, which are not always exact repeats. Identical values can stand only once. Each block holds one molecule with its values, some of them ahead of it.

Tests used:
[1] = amino acid side-chain; defined by W. D. Stein 1967; cited from earlier work
[2] = system: male C57BL mice; experiment: In vivo stimulation of intestinal growth, 200 nmol/kg (Example 11); details: for Sensitivity index Si/Colon: relative to 1559
Experimental: The ability of further compounds to selectively stimulate small intestinal mass, relative to colon mass was determined in male C57BL mice. A similar protocol was used to that described above in Example 10 except that 200 nmol/kg of each compound was administered per day. Thus, individual groups (n=6-10) of mice were given 200 nmol/kg of each compound, s.c, once daily for three consecutive days. Other groups of animals were given either an equimolar dose of [[…]]GLP-2 (reference compound) or vehicle (phosphate buffered saline, pH 7.4; negative controls) in the same dosing regimen. Twenty-four hours after the last dose of compound the mice were sacrificed and the stomach, small intestine and the colon emptied and weighed.

[3] = system: male C57BL mice; experiment: In vivo stimulation of intestinal growth, 800 nmol/kg (Example 10); design: key to Small intestine-colon sensitivity index: (SI/Colon) of compound divided by (SI/Colon) of reference GLP-2; details: 800 nmol/kg s.c. once daily for 3 days; for Colon: colon mass relative to BW, % vs. [Gly2]GLP-2; for SI (% vs. [Gly2]GLP-2: small intestine mass relative to BW, [Gly2]GLP-2 = 100%
Source text: Individual groups (n=6-10) of mice were given 800 nmol/kg of each compound, s.c, once daily for three consecutive days. For comparison purposes other groups of animals were given either an equimolar dose of [[…]]GLP-2 (ZP1559) or vehicle (phosphate buffered saline, pH 7.4) in the same dosing regimen Twenty-four hours after the last dose of compound had been given the mice were sacrificed and the small intestine (from the pylorus to the cecum) and the colon (intestine distal to cecum) was emptied and weighed. To correct for slight difference in body weight (BW), the organ mass of the small intestine (SI) and colon were expressed relative to BW. The non-selective reference compound [[…]]GLP-2 has been reported to stimulate gastrointestinal growth in both esophagus, stomach, small intestine and colon and to evaluate differences in growth pattern induced by compounds, the small intestine-colon sensitivity index of compound X was calculated as: […]

[4] = system: male C57BL mice; experiment: In vivo stimulation of stomach growth, 200 nmol/kg (Example 12)
Experimental: The effects of the test compounds according to the invention were determined based on the ability of the peptides to selectively increase stomach mass, relative to vehicle control. The ability of the present compounds (ZP2395, ZP2396, ZP2400, ZP2412, ZP2394 and ZP2401) to selectively stimulate stomach mass, relative to colon mass was determined in male C57BL mice. Individual groups (n=6-10) of mice were given 200 nmol/kg of each compound, s.c, once daily for three consecutive days. For comparison purposes other groups of animals were given either an equimolar dose of [[…]]GLP-2 or vehicle (phosphate buffered saline, pH 7.4) in the same dosing regimen. Twenty-four hours after the last dose of compound had been given the mice were sacrificed and the stomach and small intestine (from the pylorus to the ileocaecal junction) emptied and weighed. To correct for slight difference in body weight (BW), the organ mass of the stomach is presented relative to BW. […] To evaluate the differential growth pattern induced by ZP compounds, compared to [[…]]GLP-2, on the stomach, the stomach-colon sensitivity index of compound X was calculated as: (Stomach/Colon)x/Stomach/(Colon)[[…]]GLP-2% Compounds with a stomach/colon sensitivity greater than or equal to 1.05 were considered relatively selective for the stomach.

[5] = target: T1, hGLP-2 receptor (human, UniProt O95838 1-553); experiment: cell-based or functional assay
T1 sequence (looked up): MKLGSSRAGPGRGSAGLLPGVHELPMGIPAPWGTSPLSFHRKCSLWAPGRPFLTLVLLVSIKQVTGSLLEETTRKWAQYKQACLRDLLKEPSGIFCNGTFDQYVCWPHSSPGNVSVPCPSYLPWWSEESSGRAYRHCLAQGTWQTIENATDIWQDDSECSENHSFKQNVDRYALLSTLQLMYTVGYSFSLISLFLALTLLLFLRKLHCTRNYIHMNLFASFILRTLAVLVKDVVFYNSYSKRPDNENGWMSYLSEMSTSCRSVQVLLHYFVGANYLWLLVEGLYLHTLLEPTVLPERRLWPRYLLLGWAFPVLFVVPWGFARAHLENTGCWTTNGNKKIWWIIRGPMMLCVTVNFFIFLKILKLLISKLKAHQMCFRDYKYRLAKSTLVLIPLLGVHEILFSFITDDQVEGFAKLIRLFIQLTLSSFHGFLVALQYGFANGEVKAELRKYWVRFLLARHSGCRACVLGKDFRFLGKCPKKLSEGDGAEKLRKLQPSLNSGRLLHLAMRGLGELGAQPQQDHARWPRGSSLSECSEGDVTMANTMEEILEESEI

[6] = colon weight relative to body weight, relative to ZP1559
[7] = small intestine weight relative to body weight, relative to ZP1559
[8] = 200 nmol/kg s.c. once daily for 3 days
[9] = 200 nmol/kg s.c. once daily for 3 days, relative to 1559

Molecule: N[C@@H](CCC(=O)O)C(=O)O [Glu]
HBP for the individual amino acids [1]: 3

Molecule: N[C@@H](CS)C(=O)O [Cys]
HBP for the individual amino acids [1]: 0

Molecule: H-HGEGSFSSELSTILDALAARDFIAWLIATKITDK-OH [ZP2242]
Colon-BW, compared to 1559 in % [2, 6]: 106.6%
Sensitivity index Si/Co ([2]; ratio SI-BW / Colon-BW): 1.05
SI-BW, compared to 1559 in % [2, 7]: 111.7%
Colon-BW, compared to 1559 in % [3]: 106.6%
Preferential stimulation of epithelial growth in the small intestine (summary) [3]: preferentially stimulating epithelial growth in the small intestine
SI-BW, compared to 1559 in % [3]: 111.7%
Sto-BW, compared to 1559 in % [3]: 99.6%
Sensitivity index Si/Colon ([3]; relative to 1559): 1.05
Sensitivity index Stomach/Co ([3]; relative to 1559): 0.93
Colon [3]: 107 ± 3%
SI (% vs. [Gly2]GLP-2 [3]: 111 ± 2%
Sensitivity index Stomach/Co ([4]; ratio Stomach-BW / Colon-BW): 0.93
Stomach-BW, compared to 1559 in % ([4]; stomach weight relative to body weight, relative to ZP1559): 99.6%

Molecule: N[C@@H](CC(=O)O)C(=O)O [Asp]
HBP for the individual amino acids [1]: 3

Molecule: NCC(=O)O [Gly]
HBP for the individual amino acids [1]: 0

Molecule: CSCC[C@H](N)C(=O)O [Met]
HBP for the individual amino acids [1]: 0

Molecule: H-[Gly2]hGLP-2-OH (H-HGDGSFSDEMNTILDNLAARDFINWLIQTKITD-OH) [[Gly2]GLP-2, GLP-2 with alanine in position 2 replaced with glycine, reference compound]
Small intestine-colon sensitivity index ([3]; (SI/Colon)x/(SI/Colon)[Gly2]GLP-2): 1.00 ± 0.02
Colon [3]: 100 ± 2%
SI (% vs. [Gly2]GLP-2 [3]: 100 ± 1%

Molecule: N[C@@H](Cc1ccc(O)cc1)C(=O)O [Tyr]
HBP for the individual amino acids [1]: 2

Molecule: N[C@@H](Cc1c[nH]c2ccccc12)C(=O)O [Trp]
HBP for the individual amino acids [1]: 1

Molecule: N=C(N)NCCC[C@H](N)C(=O)O [Arg]
HBP for the individual amino acids [1]: 3

Molecule: N[C@@H](CO)C(=O)O [Ser]
HBP for the individual amino acids [1]: 2

Molecule: NC(=O)C[C@H](N)C(=O)O [Asn]
HBP for the individual amino acids [1]: 3

Molecule: O=C(O)[C@@H]1CCCN1 [Pro]
HBP for the individual amino acids [1]: 0

Molecule: NCCCC[C@H](N)C(=O)O [Lys]
HBP for the individual amino acids [1]: 2

Molecule: N[C@@H](Cc1c[nH]cn1)C(=O)O [His]
HBP for the individual amino acids [1]: 1

Molecule: C[C@H](N)C(=O)O [Ala]
HBP for the individual amino acids [1]: 0

Molecule: N[C@@H](Cc1ccccc1)C(=O)O [Phe]
HBP for the individual amino acids [1]: 0

Molecule: H-HGEGSFSDELATILEALAAADFISWLIATKITDKKKKKK-NH2 [ZP2411]
Colon-BW, compared to 1559 in % [2, 8]: 111%
Preferential stimulation of epithelial growth in the small intestine (summary) [2, 8]: preferentially stimulating epithelial growth in the small intestine
SI-BW, compared to 1559 in % [2, 8]: 117%
Selectivity for small intestinal mass relative to colon mass (FIG. 6) [2, 8]: selectively increase small intestinal mass, relative to colon mass
Sensitivity index Si/Colon [2, 8]: 1.05
Colon-BW, compared to 1559 in % [2, 6]: 111%
SI-BW, compared to 1559 in % [2, 7]: 117%
Sto-BW, compared to 1559 in % [4, 8]: 106%
Sensitivity index Stomach/Co [4, 9]: 0.95
Sensitivity index Stomach/Co ([4]; ratio Stomach-BW / Colon-BW): 0.95

Molecule: H-HGEGSFSDELATILEALAASDFISWLISTKITDKKKKKK-NH2 [ZP2381]
Colon-BW, compared to 1559 in % [2, 8]: 104%
Preferential stimulation of epithelial growth in the small intestine (summary) [2, 8]: preferentially stimulating epithelial growth in the small intestine
SI-BW, compared to 1559 in % [2, 8]: 123%
Selectivity for small intestinal mass relative to colon mass (FIG. 6) [2, 8]: selectively increase small intestinal mass, relative to colon mass
Sensitivity index Si/Colon [2, 8]: 1.18
Colon-BW, compared to 1559 in % [2, 6]: 104%
SI-BW, compared to 1559 in % [2, 7]: 123%
Sto-BW, compared to 1559 in % [4, 8]: 92%
Sensitivity index Stomach/Co [4, 9]: 0.88
Sensitivity index Stomach/Co ([4]; ratio Stomach-BW / Colon-BW): 0.88

Molecule: NC(=O)CC[C@H](N)C(=O)O [Gln]
HBP for the individual amino acids [1]: 3

Molecule: CC(C)[C@H](N)C(=O)O [Val]
HBP for the individual amino acids [1]: 0

Molecule: C[C@@H](O)[C@H](N)C(=O)O [Thr]
HBP for the individual amino acids [1]: 2

Molecule: CC(C)C[C@H](N)C(=O)O [Leu]
HBP for the individual amino acids [1]: 0

Molecule: H-HGEGSFSDELLTILELLAASDFISWLISTKITD-NH2 [ZP2400]
Colon-BW, compared to 1559 in % [2, 8]: 106%
SI-BW, compared to 1559 in % [2, 8]: 106%
Sensitivity index Si/Colon [2, 8]: 1.00
Colon-BW, compared to 1559 in % [2, 6]: 106%
SI-BW, compared to 1559 in % [2, 7]: 106%
Preferential stimulation of epithelial growth in the stomach (summary) [4, 8]: preferentially stimulating epithelial growth in the stomach
Selectivity for stomach mass relative to colon mass (FIG. 7) [4, 8]: selectively increase stomach mass, relative to colon mass
Sto-BW, compared to 1559 in % [4, 8]: 111%
Sensitivity index Stomach/Co [4, 9]: 1.05
Sensitivity index Stomach/Co ([4]; ratio Stomach-BW / Colon-BW): 1.05

Molecule: H-HGEGSFSDELFTILEFLAASDFISWLISTKITDKKKKKK-NH2 [ZP2396]
Colon-BW, compared to 1559 in % [2, 8]: 102%
SI-BW, compared to 1559 in % [2, 8]: 104%
Sensitivity index Si/Colon [2, 8]: 1.02
Colon-BW, compared to 1559 in % [2, 6]: 102%
SI-BW, compared to 1559 in % [2, 7]: 104%
Preferential stimulation of epithelial growth in the stomach (summary) [4, 8]: preferentially stimulating epithelial growth in the stomach
Selectivity for stomach mass relative to colon mass (FIG. 7) [4, 8]: selectively increase stomach mass, relative to colon mass
Sto-BW, compared to 1559 in % [4, 8]: 117%
Sensitivity index Stomach/Co [4, 9]: 1.15
Sensitivity index Stomach/Co ([4]; ratio Stomach-BW / Colon-BW): 1.16 and 1.15

Molecule: H-HGEGSFSDELLTILELLAALDFILWLILTKITDKKKKKK-NH2 [ZP2424]
Colon-BW, compared to 1559 in % [2, 8]: 98%
Organ selectivity (FIG. 8, unselective compounds) [2, 8]: unselective for the small intestine, colon or stomach
SI-BW, compared to 1559 in % [2, 8]: 86%
Sensitivity index Si/Colon [2, 8]: 0.88
Sto-BW, compared to 1559 in % [4, 8]: 91%
Sensitivity index Stomach/Co [4, 9]: 0.93

pEC50 (CRE-luciferase reporter, BHK-21 cells transiently transfected with hGLP-2 receptor) [5]: 10.8
Molecule: H-HGEGSFSDELSTILESLAASDFISWLISTKITD-NH2 [ZP2263]

pEC50 (CRE-luciferase reporter, BHK-21 cells transiently transfected with hGLP-2 receptor) [5]: 10.9
Molecule: H-HGEGSFSDELSTILESLAAADFIAWLIATKITD-NH2 [ZP2267]

pEC50 (CRE-luciferase reporter, BHK-21 cells transiently transfected with hGLP-2 receptor) [5]: 10.2
Molecule: H-HGEGSFSDELNTILESLAASDFISWLISTKITD-NH2 [ZP2270]

pEC50 (CRE-luciferase reporter, BHK-21 cells transiently transfected with hGLP-2 receptor) [5]: 11.5
Molecule: H-HGEGSFSDELATILEALAAADFIAWLIATKITD-NH2 [ZP2264]

pEC50 (CRE-luciferase reporter, BHK-21 cells transiently transfected with hGLP-2 receptor) [5]: 9.25
Molecule: H-HGEGSFSDELETILEELAAEDFIEWLIETKITD-NH2 [ZP2266]

pEC50 (CRE-luciferase reporter, BHK-21 cells transiently transfected with hGLP-2 receptor) [5]: 10
Molecule: H-HGEGSFSDELKTILESLAAADFIEWLIQTKITD-NH2 [ZP2269]

pEC50 (CRE-luciferase reporter, BHK-21 cells transiently transfected with hGLP-2 receptor) [5]: 11.2
Molecule: H-HGEGSFSDELATILEALAASDFISWLISTKITD-NH2 [ZP2268]
